Like-named read-outs stand apart in the source and are kept apart here.
Key:
[1] = system: root-knot nematode; experiment: Residual Root-Knot Nematicidal Activity; assay type: in vivo, Meloidogyne incognita; settings: read-out: Percent Control
Protocol: (§1) Compounds of this invention were tested as follows for nematicidal and anthelmintic activity as dust formulations (initial and residual activity) and as acetone/water formulations (systemic activity). The formulations are described above.
The ability of nematicidal compounds of the invention to control root-knot nematode infestations in soil over a period of time after treatment was evaluated. Dust formulations of test compound (5%) were incorporated into soil samples at test compound rates of 5 and 10 ppm. Subsequently, the treated soil samples were inoculated with nematode inoculum at weekly intervals, and Knot Index and Percent Control determined on seedlings planted in the soil samples. Specifically, soil treated with test compound was placed in 7.6 cm diameter fiber pots and stored in a greenhouse. At one, two and four weeks post-treatment, the appropriate number of pots was infested with root-knot nematode eggs and larvae. A cucumber or tomato seedling was planted in each pot and evaluated approximately two weeks after the soil infestation to obtain the test results reported in Tables 3 and 3a appended.

[2] = system: root-knot nematode (Meloidogyne incognita); experiment: Initial Root-Knot Nematicidal Activity; assay type: in vivo; settings: 336 h, read-out: Percent Control; for pest or weed control at 0.078 ppm: Table 2, Application Rate 0.078 ppm; for pest or weed control at 1.25 ppm: Table 2, Application Rate 1.25 ppm; for pest or weed control at 2.5 ppm: Table 2, Application Rate 2.5 ppm; for pest or weed control at 0.313 ppm: Table 2, Application Rate 0.313 ppm
Protocol: as §1
The activity against root-knot nematode (Meloidogyne incognita) was determined by incorporating the compound of the invention in nematode infested soil at rates in the range of 10 ppm to 0.078 ppm of compound. Several tomato or cucumber seedlings were planted in the nematode infested soil. Two weeks after planting the test pots were evaluated to ascertain the degree of galling (swelling) on the roots of the plants, indicating the control provided by the test chemical.
The results expressed as precent control (determined by knot index) are set forth as averages in Table 2 (appended). Knot index is a numerical designation assigned at evaluation, having the following meanings:
Percent control is related to knot index as follows:
When the Knot Index is between 0 and 1 it is further subdivided as follows to indicate how close the percent control is to 75% or 100%: […]

[3] = system: cyst nematode; experiment: Cyst Nematode Test; assay type: in vivo; settings: Table 6; rate 5 ppm; read-out: Percent Control
Protocol: as §1
The procedures was substantially the same as described in the stunt nematode test except soybean seedlings were used. "Percent Control" (Table 6 appended) is as defined in the stunt nematode test results.

[4] = system: root-knot nematode; experiment: Soil Mobility against root-knot nematode; assay type: in vivo, Meloidogyne incognita; settings: 336 h, Table 7, 5 ppm, read-out: Percent Control
Protocol: as §1
The ability of nematicidal compounds of the invention to move through nematode-infested soil […] infested soil, and subsequently eluting the soil with 15 cm of water (equivalent to 15 cm of rainfall) into a series of two or more pots of untreated, but nematode-infested, soil. Specifically, the pots were 8 cm diameter plastic pots containing a 10 cm^3 layer of sand over a coarse grade filter paper disc. Sufficient soil was placed over the sand to fill the pots, and a second filter paper disc was placed over the soil. Each test compound-treated pot was nested over a series of two or more pots containing untreated, but nematode-infested soil, also containing sand filter paper discs as described for the treated soil pots. Fifteen cm of water was slowly dripped into the top pots and the pots were allowed to drain for 16-18 hours to remove excess water. The top filter of each pot was then removed and the pots were planted with a cucumber or tomato seedling. […] "Knot Index" and "Percent Control" are as defined in the initial root-knot nematode tests above.

[5] = system: root-knot nematode; experiment: Systemic Activity (basipetal, foliar spray) against root-knot nematode; assay type: in vivo, Meloidogyne incognita; settings: foliar, 336 h, Table 8, rate 2000 ppm, read-out: Percent Control
Protocol: as §1
Compounds of the invention were tested for basipetal systemic activity against the root-knot nematode. In this test, tomato plants are grown in 10.2 cm diameter fiber pots containing steam-pasteurized soil mix (50%, soil, 50% sand) until 4-6 true leaves appear. Three of the pots are then placed on a turntable in a spray hood and the plants sprayed with 50 ml of water/acetone solution containing the test compound. The soil surface is covered during the spraying to prevent spraying of the soil. After treatment, the potted plants are placed in a lighted drying chamber. The plants are then grown in a growth chamber at 25° C. for three days and inoculated with a standard nematode culture by incorporating the inoculum into the top cm of soil in the pots. The plants are returned to the growth chamber for about two weeks at which time the pots are allowed to dry until the plants begin to wilt. The roots are shaken free of soil and the degree of galling (swelling) noted as compared to galling of untreated control plants. The results are expressed as Knot Index and Percent Control as defined in the initial root-knot nematode activity tests reported above in Table 2.

[6] = 672 h, Table 3, inoculation 4 weeks after treatment
[7] = Table 2, Application Rate 0.625 ppm

| SMILES | pest or weed control at 5 ppm [1, 6] [%] | pest or weed control at 0.078 ppm [2] [%] | pest or weed control at 0.312 ppm ([2]; Table 2, Application Rate 0.312 ppm) [%] | pest or weed control at 0.625 ppm [2, 7] [%] | pest or weed control at 1.25 ppm [2] [%] | pest or weed control at 2.5 ppm [2] [%] | pest or weed control at 0.156 ppm [2] [%] | pest or weed control at 5 ppm [3] [%] | pest or weed control at 5 ppm ([4]; Bottom container) [%] | pest or weed control at 5 ppm ([4]; Middle container) [%] | pest or weed control at 5 ppm ([4]; Top container) [%] | pest or weed control at 5 ppm ([1]; 168 h, Table 3, inoculation 1 week after treatment) [%] | pest or weed control at 10 ppm ([1]; 168 h, Table 3, 10 ppm, inoculation 1 week after treatment) [%] | pest or weed control at 5 ppm ([1]; 336 h, Table 3, inoculation 2 weeks after treatment) [%] | pest or weed control at 10 ppm ([1]; 336 h, Table 3, 10 ppm, inoculation 2 weeks after treatment) [%] | pest or weed control at 10 ppm ([1]; 672 h) [%] | pest or weed control at 0.156 ppm ([2]; Table 2, Application Rate 0.156 ppm) [%] | pest or weed control at 0.313 ppm [2] [%] | pest or weed control at 0.625 ppm [2] [%] | pest or weed control at 2000 ppm [5] [%] |
| --- | --- | --- | --- | --- | --- | --- | --- | --- | --- | --- | --- | --- | --- | --- | --- | --- | --- | --- | --- | --- |
| FC(F)=C(F)CCSc1nc(Cl)ns1 [Compound 8, 3-chloro-5-(3,4,4-trifluoro-3-butenylthio)-1,2,4-thiadiazole] | 98 | 58 | 100 | 100 | 100 | 100 | 95 | 92 | 96 | 100 | 100 |  |  |  |  |  |  |  |  |  |
| FC(F)=C(F)CCSc1nnc(SCCC(F)=C(F)F)s1 [Compound 13, 2,5-di(3,4,4-trifluoro-3-butenylthio)-1,3,4-thiadiazole] | 75 | 0 |  | 96 | 99 | 99 |  |  |  |  |  | 98 | 99 | 98 | 99 | 95 | 13 | 71 | 95 | 79 |
| FC(F)=C(F)CCSc1nnc(SCC2CC2)s1 [Compound 15, 2-cyclopropylmethylthio-5-(3,4,4-trifluoro-3-butenylthio)-1,3,4-thiadiazole] |  |  |  | 31 | 97 | 100 |  |  |  |  |  |  |  |  |  |  |  | 6 |  | 83 |

Source: US4952580A, “Pesticidal polyhaloalkene derivatives” (priority 1988, dated 1990)
